Results reported in PubChem BioAssay (NCI).
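Values below derive from 48-hour exposures of cells grown in 96-well plates, with endpoints linearly interpolated between the two concentrations bracketing the appropriate inhibition level. Here, GI50 denotes the concentration required for 50% inhibition of growth. TGI marks complete inhibition of growth.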

Experiments:
Test in all cases: NCI tumour cell line growth inhibition, 48 h
[1] = system: A549 NSCLC
[2] = system: COLO 205 colon
[3] = system: K-562 leukemia
[4] = system: OVCAR-8 ovarian
[5] = system: SF-295 CNS
[6] = system: SK-OV-3 ovarian
[7] = system: SR leukemia
[8] = system: EKVX NSCLC
[9] = system: SF-268 CNS
[10] = system: UACC-62 melanoma

SMILES | TGI [1] [µM] | TGI [2] [µM] | TGI [3] [µM] | TGI [4] [µM] | TGI [5] [µM] | TGI [6] [µM] | TGI [7] [µM] | TGI [8] [µM] | TGI [9] [µM] | TGI [10] [µM] | GI50 [1] [µM] | GI50 [2] [µM] | GI50 [3] [µM] | GI50 [4] [µM] | GI50 [9] [µM] | GI50 [5] [µM] | GI50 [6] [µM] | GI50 [7] [µM] | GI50 [10] [µM] | GI50 [8] [µM]
CN1C[C@H]2[C@@H](C1=O)[C@H](c1ccccc1)ON2C | > 100 | > 100 | > 100 | > 100 | > 100 | > 100 | > 100 |  |  |  |  |  |  |  |  |  |  |  |  | 
CC(=O)O[C@H]1C=CC(=O)C(C)CC1C (stereo partly drawn) | > 100 | > 100 | > 100 |  | > 100 | > 100 | > 100 | > 100 | > 100 | > 100 |  |  |  |  |  |  |  |  |  | 
COc1ccc(-c2nn(-c3cccc(NC(=O)Nc4ccccc4)c3)cc2-c2ccncc2)cc1Cl | 4.99 | 6.69 | > 100 | 7.18 | 6.32 | 30.8 | 6.69 |  | 7 | > 100 | 2.11 | 2.56 | 3.49 | 2.51 | 2.6 | 2.01 | 3.4 | 2.35 | 3.05 | 
Fc1ccc(-c2nn3c(-c4cc(C(F)(F)F)cc(C(F)(F)F)c4)nnc3s2)cc1 |  | > 50 | > 50 | > 50 | > 50 | 3.9 |  | > 50 | > 50 | > 50 |  | > 50 | > 50 | 1.77 | 3.03 | 1.72 | 1.38 |  | > 50 | 1.75
C=C1C(=O)O[C@@H]2[C@H]1CCC(C)=C1C=CC(=O)[C@]12C | 73 |  | 90.2 | 36.1 | 32.7 | 61.4 | 43 | 31.1 | 45.9 | 22.6 |  |  |  |  |  |  |  |  |  | 
CC(=O)C=NCC(=O)O | > 100 | > 100 | > 100 | > 100 | > 100 | > 100 | > 100 | > 100 | > 100 | > 100 |  |  |  |  |  |  |  |  |  | 
O=C(Nc1ccc(Sc2ccc(N=Nc3c(O)c(S(=O)(=O)O)cc4cc(S(=O)(=O)O)ccc34)cc2)cc1)c1ccc(N=Nc2c(O)ccc3c(S(=O)(=O)O)cc(S(=O)(=O)O)cc23)cc1 | > 100 | 35 | 87.6 | > 100 | > 100 | > 100 | 85.2 | > 100 | > 100 | 49.7 |  |  |  |  |  |  |  |  |  | 
c1ccc(N=c2nc(N3CCOCC3)ss2)cc1 | > 100 |  | 43.6 | 28.3 | 35.1 | > 100 | 58.3 | 36.4 | 31.1 | 27.5 |  |  |  |  |  |  |  |  |  | 
N#CC(Nc1cccc(C(F)(F)F)c1)c1ccccc1C(F)(F)F (stereo not drawn) | 29.3 | 10.6 | 42.4 | 33 | 22.2 | 31.4 | 25.9 | 28.7 | 32.2 | 31.4 |  |  |  |  |  |  |  |  |  | 
CCC(=O)NC(Nc1cccc(F)c1)(C(F)(F)F)C(F)(F)F | > 100 | > 100 | > 100 | > 100 | > 100 | > 100 | > 100 | > 100 | > 100 | > 100 |  |  |  |  |  |  |  |  |  | 
